Laboratory results published in the NIST ThermoML archive (doi:10.1021/acs.jced.9b00442).

What was measured:
[1] = refractive index (Na D-line) (dimensionless); details: 100 kPa, Liquid, Standard Abbe refractometry
[2] = 100 kPa, Liquid; for electrical conductivity: Frequency=0.0006 MHz, Alternating current cell with electrodes; for viscosity: Concentric cylinders viscometry; for mass density: Vibrating tube method

CC[N+](C)(C)CCCO.O=S(=O)([N-]S(=O)(=O)C(F)(F)F)C(F)(F)F
Details	electrical conductivity [S/m]	mass density [kg/m3]	refractive index	viscosity [mPa·s]
[1], 283.15 K	–	–	1.4253	–
[1], 288.15 K	–	–	1.4241	–
[1], 293.15 K	–	–	1.4228	–
[1], 298.15 K	–	–	1.4215	–
[1], 303.15 K	–	–	1.4203	–
[1], 308.15 K	–	–	1.419	–
[1], 313.15 K	–	–	1.4176	–
[1], 318.15 K	–	–	1.4164	–
[1], 323.15 K	–	–	1.4151	–
[1], 328.15 K	–	–	1.4139	–
[1], 333.15 K	–	–	1.4126	–
[1], 338.15 K	–	–	1.4114	–
[1], 343.15 K	–	–	1.4101	–
[1], 348.15 K	–	–	1.4089	–
[1], 353.15 K	–	–	1.4076	–
[1], 358.15 K	–	–	1.4064	–
[2], 283.15 K	0.049	–	–	–
[2], 288.15 K	0.069	1472.2	–	314
[2], 289.15 K	–	1471.4	–	–
[2], 290.15 K	–	1470.5	–	–
[2], 291.15 K	–	1469.6	–	–
[2], 292.15 K	–	1468.7	–	–
[2], 293.15 K	0.095	1467.8	–	220.1
[2], 294.15 K	–	1466.9	–	–
[2], 295.15 K	–	1466.1	–	–
[2], 296.15 K	–	1465.2	–	–
[2], 297.15 K	–	1464.3	–	–
[2], 298.15 K	0.125	1463.4	–	166
[2], 299.16 K	–	1462.5	–	–
[2], 300.16 K	–	1461.7	–	–
[2], 301.15 K	–	1460.8	–	–
[2], 302.15 K	–	1459.9	–	–
[2], 303.15 K	0.162	1459	–	125.4
[2], 304.15 K	–	1458.2	–	–
[2], 305.15 K	–	1457.3	–	–
[2], 306.15 K	–	1456.4	–	–
[2], 307.15 K	–	1455.5	–	–
[2], 308.15 K	0.204	1454.7	–	96.7
[2], 309.15 K	–	1453.8	–	–
[2], 310.15 K	–	1452.9	–	–
[2], 311.15 K	–	1452	–	–
[2], 312.15 K	–	1451.2	–	–
[2], 313.15 K	0.253	1450.3	–	76.8
[2], 314.15 K	–	1449.4	–	–
[2], 315.15 K	–	1448.6	–	–
[2], 316.15 K	–	1447.7	–	–
[2], 317.15 K	–	1446.8	–	–
[2], 318.15 K	0.309	1446	–	60.9
[2], 319.15 K	–	1445.1	–	–
[2], 320.15 K	–	1444.2	–	–
[2], 321.15 K	–	1443.4	–	–
[2], 322.15 K	–	1442.5	–	–
[2], 323.15 K	0.371	1441.6	–	49.5
[2], 324.15 K	–	1440.8	–	–
[2], 325.15 K	–	1439.9	–	–
[2], 326.15 K	–	1439	–	–
[2], 327.15 K	–	1438.2	–	–
[2], 328.15 K	–	1437.3	–	40.8
[2], 329.15 K	–	1436.4	–	–
[2], 330.15 K	–	1435.6	–	–
[2], 331.15 K	–	1434.7	–	–
[2], 332.15 K	–	1433.9	–	–
[2], 333.15 K	–	1433	–	34.5
[2], 334.15 K	–	1432.1	–	–
[2], 335.16 K	–	1431.3	–	–
[2], 336.15 K	–	1430.4	–	–
[2], 337.15 K	–	1429.6	–	–
[2], 338.15 K	–	1428.7	–	28.8
[2], 339.15 K	–	1427.8	–	–
[2], 340.15 K	–	1427	–	–
[2], 341.15 K	–	1426.1	–	–
[2], 342.15 K	–	1425.3	–	–
[2], 343.15 K	–	1424.4	–	24.6
[2], 344.15 K	–	1423.6	–	–
[2], 345.15 K	–	1422.7	–	–
[2], 346.15 K	–	1421.9	–	–
[2], 347.15 K	–	1421	–	–
[2], 348.15 K	–	1420.1	–	21.2
[2], 349.15 K	–	1419.3	–	–
[2], 350.15 K	–	1418.4	–	–
[2], 351.15 K	–	1417.6	–	–
[2], 352.15 K	–	1416.7	–	–
[2], 353.15 K	–	1415.9	–	18.7
[2], 354.15 K	–	1415	–	–
[2], 355.15 K	–	1414.2	–	–
[2], 356.15 K	–	1413.3	–	–
[2], 357.15 K	–	1412.5	–	–
[2], 358.15 K	–	1411.7	–	16.2
[2], 359.15 K	–	1410.8	–	–
[2], 360.15 K	–	1410	–	–
[2], 361.15 K	–	1409.1	–	–
[2], 362.16 K	–	1408.3	–	–
[2], 363.15 K	–	1407.4	–	14.3
